# Where two headings read alike, the source gives them in different places.
# Columns and labels:
# [1] = test system: A. baumannii J2; assay: Preliminary MBC without and with sub-inhibitory polymyxin B (Example 4); format: cell-based, Acinetobacter baumannii
# [2] = test system: Acinetobacter sp. (H064200250); assay: as above; format: cell-based; conditions: preliminary MBC
# Method: The plates were incubated for 18-20 hours at 37° C. The MBC was read as the lowest concentration at which colony growth was ca. 90% less than the positive control (i.e. usually where single colonies or no colonies were observed).
# [3] = test system: A. baumannii A329; assay: MIC without and with sub-inhibitory polymyxin B (Example 4); format: cell-based, Acinetobacter baumannii; conditions: A. baumannii A329; for MIC without PB/MIC + PB / MIC: 2nd experiment
# [4] = test system: A. baumannii A489; assay: Preliminary MBC without and with sub-inhibitory polymyxin B (Example 4); format: cell-based, Acinetobacter baumannii
# [5] = test system: GN48 Klebsiella pneumoniae NCTC 13443 NDM-1-β-lactamase producing isolate; assay: Chequerboard synergy with polymyxin B, FICI (Example 6); format: cell-based
# From the text: (§1) A chequerboard technique was used to identify possible synergistic or antagonistic interactions between the 4-oxoquinolizines compounds, levofloxacin and polymyxin B. Levofloxacin was included as a control. […] Final dilutions were made in Mueller-Hinton broth, the specific test medium used for MIC determinations according to CLSI guidelines (CLSI. Methods for Dilution Antimicrobial Susceptibility Tests for Bacteria That Grow Aerobically; Approved Standard-Eighth Edition (2009). CLSI Document M07-A8. CLSI, Wayne, Pa. 19087-1898, USA.). The test medium used was a cation-adjusted Mueller-Hinton Broth II (Becton Dickinson UK Ltd., Oxford Science Park, Oxford, UK, OX4 4DQ).
# (§2) The compounds 2, 33 and 35, as well as levofloxacin were tested in combination with polymyxin B on the following isolates: GN31 Acinetobacter baumannii—antibiotic susceptible clinical isolate, GN52 Acinetobacter baumannii—levofloxacin resistant clinical isolate, GN56 Acinetobacter baumannii—levofloxacin resistant clinical isolate, GN48 Klebsiella pneumoniae—NCTC 13443—NDM-1-metallo-β-lactamase and GN10 Pseudomonas aeruginosa—ATCC 27853—antibiotic susceptible reference isolate. All isolates are from the collection maintained at Quotient Bioresearch Ltd., Cambridge, UK.
# (§3) The MIC values for the compounds and polymyxin B and levofloxacin were determined by broth microdilution following CLSI guidelines, and the MICs of agents in combination were determined as described by Pillai et. al (Pillai S K, Moellering R C Jr, Eliopoulis G M; Antimicrobial Combinations in Antibiotics in Laboratory Medicine 5th Edition (V. Lorian Ed) (2005) p 365-440). Initial MIC results were used to determine the microtiter plate patterns for the chequerboards. A suitable doubling dilution concentration range was selected such that the combination antibiotic range was at least two concentrations above and four concentrations below the MIC for each isolate. A fixed range of 0.008 to 8 mg/L was tested for polymyxin B except in the case of A. baumannii GN31 where a range of 0.004 to 4 mg/L was tested when in combination with the compounds 2, 33 and 35 as well as levofloxacin.
# (§4) From the raw data, fractional inhibitory concentration indices (FICI) were determined for the compounds of the invention and levofloxacin together with polymyxin B for each isolate as follows:
# (§5) FICX=concentration of the combination antibiotic in a particular row MIC of the combination drug alone
# (§6) FICY=MIC of polymyxin B in combination[…]MIC of the polymyxin B alone
# (§7) Additionally isobolograms were created to represent the same data visually. Here, the MIC of polymyxin B was plotted against every concentration of the combination antibiotic up to the MIC.
# [6] = test system: GN52 Acinetobacter baumannii levofloxacin resistant clinical isolate; assay: as above; format: cell-based
# From the text: as §1, §2, §3, §4, §5, §6, §7
# [7] = test system: GN56 Acinetobacter baumannii levofloxacin resistant clinical isolate; assay: as above; format: cell-based
# From the text: as §1, §2, §3, §4, §5, §6, §7
# [8] = Acinetobacter baumannii, J2, read-out: MBC +[…] PB, A. baumannii J2, +[…] polymyxin B, preliminary MBC, 1st experiment
# [9] = Acinetobacter spp. H064200250 (OXA51), +[…] PB, 2nd experiment
# [10] = Acinetobacter baumannii, A489, read-out: MBC +[…] PB, A. baumannii A489, +[…] polymyxin B, preliminary MBC, 1st experiment
# [11] = in combination with polymyxin B
# [12] = polymyxin B with the named antibiotic
# [13] = Acinetobacter baumannii, J2, A. baumannii J2, +[…] PB, preliminary MBC, 2nd experiment, read-out: MBC
# [14] = Acinetobacter, Acinetobacter spp. H064200250 (OXA51), +[…] PB, 2nd experiment, read-out: MBC
# [15] = Acinetobacter baumannii, A489, A. baumannii A489, +[…] PB, preliminary MBC, 2nd experiment, read-out: MBC
compound,measurement,setting,value
COc1c(N2C[C@@H]3CCCN[C@@H]3C2)c(F)cc2c(=O)c(C(=O)O)cn(C3CC3)c12 [Moxifloxacin],MBC,"[1]; Acinetobacter baumannii, J2, A. baumannii J2, +[…] PB, preliminary MBC, 2nd experiment",8 mg/L
same,MBC,[1]; [8],8 mg/L
same,MBC,[2]; [9],16 mg/L
same,MIC without PB/MIC + PB,[3]; +0.06 μg/ml PB,1
same,MBC,"[4]; Acinetobacter baumannii, A489, A. baumannii A489, +[…] PB, preliminary MBC, 2nd experiment",4 mg/L
same,MBC,[4]; [10],4 mg/L
"C[C@H]1COc2c(N3CCN(C)CC3)c(F)cc3c(=O)c(C(=O)O)cn1c23 [Levofloxacin, reference compound]",Combination drug MIC alone,[5],64 mg/L
same,FICx,[5],0.13
same,FICy,[5],1.00
same,FICI,[5]; combination with polymyxin B,1.13
same,Synergy,[5]; combination with polymyxin B,Indifferent (indifference (FICI 0.76 to 2.75))
same,Combination drug concentration in combination,[5]; [11],8 mg/L
same,Polymyxin B MIC in combination,[5]; [12],0.5 mg/L
same,Combination drug MIC alone,[6],8 mg/L
same,FICx,[6],0.13
same,FICy,[6],1.00
same,FICI,[6]; combination with polymyxin B,1.13
same,Synergy,[6]; combination with polymyxin B,Indifferent (indifference (FICI 0.76 to 2.75))
same,Combination drug concentration in combination,[6]; [11],1 mg/L
same,Polymyxin B MIC in combination,[6]; [12],0.5 mg/L
same,Combination drug MIC alone,[7],32 mg/L
same,FICx,[7],0.13
same,FICy,[7],1.00
same,FICI,[7]; combination with polymyxin B,1.13
same,Synergy,[7]; combination with polymyxin B,Indifferent (indifference (FICI 0.76 to 2.75))
same,Combination drug concentration in combination,[7]; [11],4 mg/L
same,Polymyxin B MIC in combination,[7]; [12],0.5 mg/L
same,MBC,[1]; [13],4 mg/L
same,MBC,"[1]; Acinetobacter baumannii, J2, read-out: MBC +[…] PB",8 mg/L
same,MBC,[2]; [14],8 mg/L
same,MIC without PB/MIC + PB,[3]; +0.06 μg/ml PB,0.5
same,MBC,[4]; [15],4 mg/L
same,MBC,"[4]; Acinetobacter baumannii, A489, read-out: MBC +[…] PB",8 mg/L
"NCC[C@H](O)C(=O)N[C@@H]1C[C@H](N)[C@@H](O[C@H]2O[C@H](CN)[C@@H](O)[C@H](O)[C@H]2O)[C@H](O)[C@H]1O[C@H]1O[C@H](CO)[C@@H](O)[C@H](N)[C@H]1O [Amikacin, reference compound]",MBC,[1]; [13],0.5 mg/L
same,MBC,[1]; [8],4 mg/L
same,MBC,[2]; [14],1 mg/L
same,MBC,"[2]; Acinetobacter, read-out: MBC +[…] PB, Acinetobacter spp. H064200250, +[…] polymyxin B, 1st experiment",64 mg/L
same,MIC without PB/MIC + PB,[3]; +0.06 μg/ml PB,1
same,MBC,[4]; [15],64 mg/L
same,MBC,[4]; [10],128 mg/L
Polymyxin B [reference compound],Polymyxin B MIC alone,[5],0.5 mg/L
same,Polymyxin B MIC alone,[6],0.5 mg/L
same,Polymyxin B MIC alone,[7],0.5 mg/L
same,MBC,"[1]; A. baumannii J2, +[…] PB, preliminary MBC, 2nd experiment",≤0.125 mg/L
same,MBC +[…] PB,"[1]; A. baumannii J2, +[…] polymyxin B, preliminary MBC, 1st experiment",0.5 mg/L
same,MBC,"[1]; A. baumannii J2, without PB, preliminary MBC, 2nd experiment",0.5 mg/L
same,MBC without PB,"[1]; A. baumannii J2, without polymyxin B, preliminary MBC, 1st experiment",0.5 mg/L
same,MBC,[2]; [9],0.25 mg/L
same,MBC,"[2]; Acinetobacter spp. H064200250 (OXA51), without PB, 2nd experiment",0.25 mg/L
same,MBC +[…] PB,"[2]; Acinetobacter spp. H064200250, +[…] polymyxin B, 1st experiment",0.5 mg/L
same,MBC without PB,"[2]; Acinetobacter spp. H064200250, without polymyxin B, 1st experiment",0.5 mg/L
same,MIC,[3]; +0.06 μg/ml PB,0.25 mg/L
same,MIC without PB/MIC + PB,[3]; +0.06 μg/ml PB,1
same,MIC,[3]; without PB,0.25 mg/L
same,MIC without PB,"[3]; without polymyxin B, 1st experiment",0.5 mg/L
same,MBC,"[4]; A. baumannii A489, +[…] PB, preliminary MBC, 2nd experiment",0.25 mg/L
same,MBC +[…] PB,"[4]; A. baumannii A489, +[…] polymyxin B, preliminary MBC, 1st experiment",1 mg/L
same,MBC,"[4]; A. baumannii A489, without PB, preliminary MBC, 2nd experiment",0.5 mg/L
same,MBC without PB,"[4]; A. baumannii A489, without polymyxin B, preliminary MBC, 1st experiment",2 mg/L

# Source: patent publication US20190105367A1, “ANTIMICROBIAL 4-OXOQUINOLIZINES” (Emergent Product Development Gaithersburg Inc., priority 2011, published 2019)
